Source: patent publication US11267809B2, “BAF complex modulating compounds and methods of using the same” (THE BOARD OF TRUSTEES OF THE LELAND STANFORD JUNIOR …, priority 2017, dated 2022)

Experiments:
Format in all cases: cell-based, human
HCT116 cells = test: Synergy viability assay (CellTitre blue, 5 days), HCT116 ARID1A(+/+)
Protocol: To assess drug synergy, the Chou-Talalay method was employed to provide a mechanism-independent method to quantify the synergism of drug interactions. This method combines elements of the Scatchard, Michaelis-menten, Hill, and Henderson-Hasslebalch equations through the law of mass-action^31,32 to generate a quantifiable assessment of synergy. Molecules were tested both independently and then in 25 different combinations in HCT116 cells for 5 days as described above. To determine a combination index (CI), median-effect equations of the two respective molecules were determined from their respective dose responses. The median-effect equation was used to calculate a median-effect dose, and (Dx)ATRi,BAFi values which correspond for the respective doses of the BAFi and ATRi compounds and correlate with a given percentage of cells affected by the individual treatments. Normalized index values (IATRi, IBAFi), and the combination index are a ratio between the treatment dose, and the Dx for a given fraction of affected cells. Combination indices less than 0.9 are considered synergistic, while values ranging from 0.9 to 1.1 are additive, and CIs above 1.1 are antagonistic.
(§1) Viability assays were performed in 384-well plates. Cells were plated at 500 cells/well. Each drug was administered in 5-doses with 4 replicates per plate, and each 5×5 drug combination was administered with 8 replicates per plate, 24 hours after seeding. All error bars represent 4 or 8 technical replicates averaged over 3 independent experiments. Media containing fresh drug was replaced every 48 hours. After 5 days, cellular viability was measured using CellTitre blue, as described by the manufacturer.

[1] = tested on: HCT116 cells infected with shRNA lentivirus targeting ARID1A; test: Synergy viability assay, HCT116 with shARID1A knockdown
Text: SMARCA4, the primary target of our original screen, is present in both human BAF and PBAF complexes in cancer^12. PBAF complexes differ from BAF complexes by incorporation of specific subunits. Specifically, PBAF complexes contain ARID2 (as opposed to ARID1A/B), PHF10 (BAF45a) (as opposed to […] (BAF45d)), PBRM1, and lack the BAF-specific subunit SS18. PBAF specific subunits are also frequently mutated in cancer, specifically renal clear cell carcinomas and cholangiocarcinomas^33-36. To assess whether the lead compound is targeting BAF, PBAF complexes, or both, we constitutively knocked down ARID1A or ARID2 by lentiviral transduction of HCT116 cells and compared the BAFi/ATRi synergy to the wild-type (ARID1A+/+). […] Further, upon knockdown of ARID1A or ARID2 (FIG. 3b), the synergistic effect observed between Baficillin1 and VE-821 was ablated upon loss of ARID1A (FIG. 3e) (CIshARID1A=1.48±0.14), but not loss of shARID2 (CIshARID2=0.42±0.04) (FIG. 3c-e).
as §1
Lentiviruses were produced in Lenti-X 293T cells (Clonetech) via spinfection with polyethylenimine transfection. 293T-x cells were transfected with PEI (Polysciences Inc., 24765) with lentiviral PLKO shARID1A or GIPZ shARID2 knockdown vectors, co-transfected with packaging vectors pspax2 and pMD2.G as previously described^49. PLKO shRNA construct targeting ARID1A (TRCN0000059090: shRNA-2) was obtained^50 and GIPZ Human ARID2 shRNA was purchased from Dharmacon (CloneId:V2LHS_74399). […]

MCF-7 cells = test: Synergy viability assay, MCF-7; conditions: with VE-821 (1.25-20 uM each)
Text: (§2) In ARID1A-deficient tumors, ATR inhibition is thought to trigger premature mitotic entry and chromosome instability that cannot be resolved, resulting in mitotic catastrophe^27. […] We sought to assess whether generic BAF inhibition might sensitize a host of cancers to ATR inhibition. We tested the efficacy of BAFi and ATRi on nine additional human cancer cell lines including seven Breast cancer cell lines (HCC1143, HCC1954, HCC1187, MDAMB-468, MDA-MB-436, Cal-51, MCF-7) and two renal clear cell carcinoma cell lines (A-704, and ACHN). Cal-51 and MCF-7 are both considered aggressive, highly mutated breast cancer cell lines with numerous COSMIC Census gene mutations (FIG. 10). HCC1143 and MDA-MB-468 are sporadic basal-likecancers, HCC1187 is a triple-negative breast cancer, and HCC1954 and MDA-MB-436 are BRCA1 mutant breast cancers which harbor single driver mutations. To assess synergy, each cell line was treated with 5 doses of VE-821 (1.25 uM-20 uM) and 5 doses of Baficillin1 (1.25 uM-20 uM), both independently and with all possible combinations. Like HCT-116 cells, Baficillin1 sensitized MCF-7 and Cal-51 cells lines to treatment with VE-821 (FIG. 6a).
(§3) Viability assays were performed in 384-well plates. Cells were plated at 500 cells/well. […] After 5 days, cellular viability was measured using CellTitre blue, as described by the manufacturer.

MDA-MB-436 cells = test: Synergy viability assay, MDA-MB-436
Text: as §2, §3

[2] = tested on: ACHN renal clear cell carcinoma cell line; test: Synergy viability assay, ACHN; conditions: with VE-821, PBRM1 mutant line
Text: as §2, §3

Structure (SMILES): CO[C@H]1CN(C)C(=O)c2cc(NC(=O)NC(C)C)ccc2OC[C@H](C)N(Cc2ccc(-c3ccccn3)cc2)C[C@@H]1C [Baficillin1]
- dose reduction index (HCT116 cells; combination of VE-821 and Baficillin1, higher concentrations): > 100 fold
- dose reduction index (HCT116 cells; combination of VE-821 and Baficillin1, low concentrations): over 10 fold
- average combination index (CI) (HCT116 cells; with VE-821 (1.25-20 uM each, 25 combinations), 5 days, Chou-Talalay): 0.53±0.05
- sensitivity (cell survival) compared to wild-type HCT116 ([1]; single agent, 5 continuous days): slightly less sensitive
- combination index (CI shARID1A) ([1]; with VE-821, 5 days): 1.48±0.14
- combination index (CI MCF-7) (MCF-7 cells): 0.45±0.04
- sensitivity to Baficillin1 independently (MDA-MB-436 cells; single agent, BRCA1 mutant line): significantly more sensitive
- combinatorial effects of BAFi/ATRi (MDA-MB-436 cells; with VE-821): strictly additive
- combinatorial effects of BAFi/ATRi [2]: antagonism
